Consider four molecules from patent publication US20040005649A1, “Anti-stilbene antibodies” (priority 2003, published 2004).

Structures are written as SMILES.

One series relates to mAb 19G2. In words: Binding of stilbene-tethered C-nucleosides to blue-fluorescent mAb 19G2 (fluorescence, crystal soak). The arrangement: species or system mice. Particulars: for emission of mAb 19G2 crystal after soaking: crystal soaked with ligand, UV lamp. As for the experimental part: Each C-nucleoside was tested for the ability to bind to the blue-fluorescent monoclonal antibody (mAb) 19G2. […] Subsequently, we acquired X-ray crystallographic data on both complexes primarily to obtain information regarding positioning of the nucleobase moiety with regard to the protein framework. The structures of the 19G2-9 and 19G2-18 complexes were determined to a resolution of 2.45 Å and 2.20 Å, respectively (Table 4). In both cases, the antibody structures differ by an RMSD of 0.61 Å and 0.50 Å from that of the previously determined 19G2-12 complex. The stilbene portion of both 9 and 18 is clear in 2σ density and could be readily modeled into the density as the trans-isomer. For both complexes, binding site amino acid residues within 5 Å of the stilbene are observed to be in the same conformation as in 19G2-12.
X-ray crystallography. Crystals of mAb 19G2 were soaked overnight with a 0.25 mM solution of either 9 or 18 (DMF stock solutions) in mother liquor from the crystal growth (12% polyethylene glycol, 0.1 M sodium acetate pH 4.75, 0.3 M magnesium chloride) containing 5% DMF. Formation of the complex in the crystal was assayed by the appearance of blue fluorescence from soaked crystals when illuminated by a hand-held UV lamp at 312 nm (Spectronics Corp.; Westbury, N.Y.). The crystals were soaked in a cryobuffer consisting of 20% glycerol, 0.25 mM 9 or 18, mother liquor, and 5% DMF and flash frozen in liquid nitrogen. X-ray diffraction was collected in-house with an FRD X-ray generator and a RAXISIVF^++ detector. Data was processed and scaled using HKL software package. The previously determined structure of the antibody (PDB ID CODE 1FL3) was used as a starting model for refinement. Multiple rounds of rigid body refinement, B-factor refinement, Powell minimization, simulated annealing in CNS and manual rebuilding in O were performed.

The nature of series [1]: Steady-state UV absorption, fluorescence excitation and emission spectra, quantum yield. It counts as physicochemical. On the procedure:
(A) UV absorption. (B) Fluorescence excitation. Note: The 19G2-2 complex and free 2 each required a separate y-axis scale for side-by-side comparison of peak shapes. (C) Fluorescence emission. See note for (B). In all cases, see Table 2 for experimental conditions. Steady-state excitation and emission spectra were recorded using an SLM 8100 spectrofluorimeter (Spectronics Instruments) with a bandpass of 4 nm for excitation and emission.

A short description of series [2]: Picosecond time-resolved emission, time-correlated single photon counting. It counts as physicochemical. On the procedure:
Measurements were obtained with picosecond excitation at 318 nm. Decays were measured at 380 nm (free 2, 16H10 and 25E5 complexes) or 410 nm (19G2 complex) by time-correlated single photon counting. Decays were recorded in 4096 channels with a time increment of 18 ps/channel and were normalized relative to the number of counts recorded in the peak channel. See Table 3 for experimental conditions.
Normalized time-resolved emission profiles of the 20F2-2 complex were recorded at 370 nm (purple) and 480 nm (blue). The solid lines are multiexponential fits to each decay. […] Decays were recorded in 4096 channels with a time increment of 4.9 ps/channel and were normalized relative to the number of counts recorded in the peak channel. See Table 3 for experimental conditions.
Dynamic spectroscopy. Picosecond time-resolved emission spectroscopy was used to further probe the dynamics of blue-fluorescent antibodies. Time-resolved emission decay profiles of free 2 and bound to EP2 mAbs were measured at room temperature by time-correlated single-photon counting (Table 3, FIG. 16).

The conditions of series [3]: 77° K in hydrophobic solvents and 193° K in glycerol; cited from earlier work.
Where [4] appears, read: 20 μM mAb, 10 μM of 2 (or free stilbene), PBS pH 7.4, 5% DMF, 20° C.
Where [5] appears, read: 20 μM mAb, 10 μM of 2 (or free stilbene), PBS, 5% DMF, 20° C.

For the molecule `OCC1OC(c2ccc(COCCOCCOCc3ccc(C=Cc4ccccc4)cc3)cc2)CC1O` [compound 18, 1,4-anhydro-2-deoxy-1-C-[4-[[2-[2-[[4-[(1E)-2-phenylethenyl]phenyl]methoxy]ethoxy]ethoxy]methyl]]phenyl]-D-erythro-pentitol], in the series with mAb 19G2, the “quantum yield (φf) of complex with mAb 19G2” value (shortened to “quantum yield (φf) of complex”) is recorded as “comparable” and the “emission of mAb 19G2 crystal after soaking” value is recorded as “blue emission”.

In series [1] (setting [4]), `O=C(CCCC(=O)Nc1ccc(/C=C/c2ccccc2)cc1)NCCc1ccc(C2C[C@H](O)[C@@H](CO)O2)cc1` (stereo partly drawn) [compound 9, N-[2-[4-[2-deoxy-D-erythro-pentofuranosyl]phenyl]ethyl]-N′-[4-[(1E)-2-phenylethenyl]phenyl]-pentanediamide, reference compound] gave a λem of 442 nm. Besides, in series [1] (setting [5]), the εmax is 30000 M⁻¹ cm⁻¹. Also, in the series on mAb 19G2, the “quantum yield (φf) of complex” value is given as “comparable” and the “emission of mAb 19G2 crystal after soaking” value is recorded as “blue emission”.

In series [1] (setting [4]), `O=C(O)CCCC(=O)Nc1ccc(/C=C/c2ccccc2)cc1` [compound 2, 5-oxo-5-[[4-[(1E)-2-phenylethenyl]phenyl]amino]-pentanoic acid] came in with a λem of 388 nm and a λex of 325 nm. The molecule also returned a εmax in series [1] (setting [5]) of 33200 M⁻¹ cm⁻¹. The “φf lower than blue-fluorescent antibody complexes” value in series [1] (free 2 in fluid solution) is reported as 30-40 fold. The “φf (fluorescence quantum yield)” value in series [1] (reference quinine bisulfate, 20 μM mAb, 10 μM of 2, PBS, 5% DMF, 20° C, accurate to ±10%) is 0.02. In addition, the UV absorption bands in series [1] (values in parentheses are shoulders/inflections, 20 μM mAb, 10 μM of 2, PBS, 5% DMF, 20° C) worked out at 320 nm. Further, the “quantum yield (φf) of complex” value in the series with mAb 19G2 was ~0.80. Also, the “fluorescence decay components, τf” value in series [2] (20 μM mAb, 10 μM of 2 (or free 2), PBS, 5% DMF, 20° C) turned out to be 0.071 ns. For the same molecule, the “kr (radiative rate constant)” value in series [2] (calculated as the inverse of τr) was 0.28 ns^−1. Also, the “τr (radiative lifetime)” value in series [2] (calculated from τf and φf) is reported as 3.6 ns. Besides, in series [2] (calculated knr = [kr(1-φf)/φf]), the “knr (nonradiative rate constant)” value is 14 ns^−1. Further, the fluorescence lifetime in series [2] (free in aqueous buffer, room temperature) was ~70 ps.

Take `C(=C\c1ccccc1)/c1ccccc1` [compound 1, trans-stilbene]: in series [3], the φf is on record as 0.75.
